Test results as given in PubChem BioAssay AID330 (DTP/NCI, 2004).
Where “and” joins values, the source holds several entries; their conditions need not be identical. Equal values may be shown once. Toxic doses and inconclusive results are not listed. The calls were made as follows: active = survival T/C of 150% or more; inactive = T/C below 125% in these data.

Tested on: P388 leukemia ip, CD2F1 mice, survival T/C
Experiment: NCI In Vivo Anticancer Drug Screen. Data for tumor model P388 Leukemia (intraperitoneal) in CD2F1 (CDF1) mice
Details: endpoint: median survival time, higher = longer survival
How it was run: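 Mice carrying the transplanted tumor received test compound or vehicle. Survival was recorded in each group, and the value is the treated-group measurement divided by that of the vehicle-treated control group.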

[1] = dose: 12.5 mg/kg/injection, schedule: Q01DX005 (ip), vehicle: Klucel (hydroxypropylcellulose) (HPC)
[2] = dose: 25.0 mg/kg/injection, schedule: Q01DX005 (ip), vehicle: Klucel (hydroxypropylcellulose) (HPC)
[3] = dose: 100.0 mg/kg/injection, schedule: Q01DX005 (ip), vehicle: Klucel (hydroxypropylcellulose) (HPC)
[4] = dose: 200.0 mg/kg/injection, schedule: Q01DX005 (ip), vehicle: Klucel (hydroxypropylcellulose) (HPC)
[5] = dose: 50.0 mg/kg/injection, schedule: Q01DX005 (ip), vehicle: Klucel (hydroxypropylcellulose) (HPC)
[6] = dose: 100.0 mg/kg/injection, schedule: Q01DX001 (ip), vehicle: saline with Tween-80
[7] = dose: 200.0 mg/kg/injection, schedule: Q01DX001 (ip), vehicle: saline with Tween-80
[8] = dose: 400.0 mg/kg/injection, schedule: Q01DX001 (ip), vehicle: saline with Tween-80
[9] = dose: 60.0 mg/kg/injection, schedule: Q01DX005 (ip), vehicle: saline with Tween-80
[10] = dose: 120.0 mg/kg/injection, schedule: Q01DX005 (ip), vehicle: saline with Tween-80
[11] = dose: 240.0 mg/kg/injection, schedule: Q01DX005 (ip), vehicle: saline with Tween-80
[12] = dose: 12.5 mg/kg/injection, schedule: Q01DX005 (ip), vehicle: saline with Tween-80
[13] = dose: 50.0 mg/kg/injection, schedule: Q01DX005 (ip), vehicle: saline with Tween-80
[14] = dose: 100.0 mg/kg/injection, schedule: Q01DX005 (ip), vehicle: saline with Tween-80
[15] = dose: 50.0 mg/kg/injection, schedule: Q01DX009 (ip), vehicle: saline with Tween-80
[16] = dose: 100.0 mg/kg/injection, schedule: Q01DX009 (ip), vehicle: saline with Tween-80
[17] = dose: 200.0 mg/kg/injection, schedule: Q01DX005 (ip), vehicle: saline with Tween-80
[18] = dose: 100.0 mg/kg/injection, schedule: Q01DX001 (ip), vehicle: saline
[19] = dose: 200.0 mg/kg/injection, schedule: Q01DX001 (ip), vehicle: saline
[20] = dose: 400.0 mg/kg/injection, schedule: Q01DX001 (ip), vehicle: saline
[21] = dose: 100.0 mg/kg/injection, schedule: Q01DX009 (ip), vehicle: saline
[22] = dose: 200.0 mg/kg/injection, schedule: Q01DX009 (ip), vehicle: saline

Measured: T/C

CC1=CC(=Nc2cc(Cl)c(O)c(Cl)c2)C=CC1=O
inactive: dose: 6.25 mg/kg/injection, schedule: Q01DX005 (ip), vehicle: saline 96 % of control | dose: 12.5 mg/kg/injection, schedule: Q01DX005 (ip), vehicle: saline 96 % of control | dose: 25.0 mg/kg/injection, schedule: Q01DX005 (ip), vehicle: saline 89 % of control

O=CNC(Cc1ccc(O)cc1)C(=O)O (configuration not stated)
inactive: [1] 102 % of control and 105 % of control | [2] 100 % of control and 104 % of control | [3] 101 % of control and 107 % of control | [4] 96 % of control

COC(=O)/C=C\C(C)=C/C(=O)OC
inactive: [5] 100 % of control | [3] 99 % of control | [4] 99 % of control

O=C1c2ccccc2C=c2c1nc1c(O)ccc3cccc2c31
inactive: dose: 6.25 mg/kg/injection, schedule: Q01DX005 (ip), vehicle: Klucel (hydroxypropylcellulose) (HPC) 101 % of control | [1] 100 % of control | [2] 111 % of control | [5] 97 % of control

N#Cc1c(-c2ccc(Br)cc2)c(-c2ccc(Br)cc2)n[nH]c1=O
inactive: [6] 91 % of control | [7] 95 % of control | [8] 95 % of control

C=C1OC(=O)C(N)=C1C(C)=O
inactive: [9] 99 % of control | [10] 97 % of control | [11] 95 % of control

CN(C)[C@@H]1C(=O)C(C(N)=O)=C(O)[C@@]2(O)C(=O)C3=C(O)c4c(O)ccc(Cl)c4[C@@](C)(O)[C@H]3C[C@@H]12.[Cl][Sb]([Cl])[Cl]
inactive: [12] 108 % of control | [13] 116 % of control and 120 % of control | [14] 104 % of control

CNC(=O)OCc1c(COC(=O)NC)c(-c2ccco2)n2c1CCC2
inactive: dose: 3.75 mg/kg/injection, schedule: Q01DX005 (ip), vehicle: saline 100 % of control | dose: 7.5 mg/kg/injection, schedule: Q01DX005 (ip), vehicle: saline 101 % of control | dose: 15.0 mg/kg/injection, schedule: Q01DX005 (ip), vehicle: saline 120 % of control

CCS/C(C#N)=C/c1ccccc1
inactive: [15] 109 % of control | [16] 115 % of control

NC(CCSCc1ccccc1)P(=O)(O)O (configuration not stated)
inactive: [13] 100 % of control | [14] 97 % of control | [17] 92 % of control

O=C1C=CC2OC(c3ccccc3)C(O)C2O1 (configuration not stated)
inactive: dose: 3.12 mg/kg/injection, schedule: Q01DX005 (ip), vehicle: DMSO 98 % of control | dose: 6.25 mg/kg/injection, schedule: Q01DX005 (ip), vehicle: DMSO 107 % of control | dose: 6.25 mg/kg/injection, schedule: Q01DX005 (ip), vehicle: saline with Tween-80 110 % of control and 118 % of control (2×) | dose: 6.25 mg/kg/injection, schedule: Q01DX009 (ip), vehicle: distilled water + Tween-80 + alcohol 98 % of control | dose: 12.5 mg/kg/injection, schedule: Q01DX005 (ip), vehicle: DMSO 116 % of control | [12] 103 % of control (2×) and 117 % of control | dose: 12.5 mg/kg/injection, schedule: Q01DX009 (ip), vehicle: distilled water + Tween-80 + alcohol 109 % of control | dose: 25.0 mg/kg/injection, schedule: Q01DX005 (ip), vehicle: DMSO 122 % of control | dose: 25.0 mg/kg/injection, schedule: Q01DX005 (ip), vehicle: saline with Tween-80 109 % of control (2×) and 118 % of control | dose: 25.0 mg/kg/injection, schedule: Q01DX009 (ip), vehicle: distilled water + Tween-80 + alcohol 118 % of control | dose: 30.0 mg/kg/injection, schedule: Q01DX009 (ip), vehicle: DMSO 113 % of control | [13] 107 % of control

Nc1ccn(C2CC(N)C(CO)O2)c(=O)n1 (configuration not stated)
active: dose: 200.0 mg/kg/injection, schedule: Q01DX005 (ip), vehicle: water 153 % of control and 154 % of control
inactive: dose: 12.5 mg/kg/injection, schedule: Q01DX005 (ip), vehicle: water 120 % of control | dose: 25.0 mg/kg/injection, schedule: Q01DX005 (ip), vehicle: water 118 % of control and 123 % of control

CC(=O)Nc1ccc(Cl)cc1C(Cl)c1ccccc1 (configuration not stated)
inactive: [1] 109 % of control | [2] 118 % of control | [5] 123 % of control and 124 % of control | [3] 115 % of control

CSc1ncc(Br)c(Sc2nccn2C)n1
inactive: [9] 112 % of control | [10] 117 % of control | [11] 114 % of control

O=C(O)P(=O)(O)O
inactive: dose: 50.0 mg/kg/injection, schedule: Q01DX009 (ip), vehicle: water 95 % of control | dose: 100.0 mg/kg/injection, schedule: Q01DX009 (ip), vehicle: water 103 % of control | dose: 200.0 mg/kg/injection, schedule: Q01DX009 (ip), vehicle: water 100 % of control

CC1C(C(=O)c2ccccc2)=CNc2ccccc21 (configuration not stated)
inactive: [6] 91 % of control | [7] 96 % of control | [8] 92 % of control

CCC[CH2][Sn]1([CH2]CCC)[O]OC(c2ccc(C)cc2)[O]1 (configuration not stated)
inactive: dose: 0.19 mg/kg/injection, schedule: Q01DX009 (ip), vehicle: saline with Tween-80 102 % of control | dose: 0.38 mg/kg/injection, schedule: Q01DX009 (ip), vehicle: saline with Tween-80 94 % of control | dose: 0.75 mg/kg/injection, schedule: Q01DX009 (ip), vehicle: saline with Tween-80 116 % of control

CCOc1ccccc1C=C1c2ccccc2C(=O)c2ccccc21
inactive: [15] 96 % of control | [16] 92 % of control | dose: 200.0 mg/kg/injection, schedule: Q01DX009 (ip), vehicle: saline with Tween-80 91 % of control

Cn1[nH]c(C(C)(C)O)cc1=O
inactive: [18] 107 % of control | [19] 97 % of control | [20] 101 % of control

COCCCn1c(-c2cc(OC)c(OC)c(OC)c2)nn2c(=O)c3ccccc3nc2c1=O
inactive: dose: 50.0 mg/kg/injection, schedule: Q01DX009 (ip), vehicle: saline 102 % of control | [21] 107 % of control | [22] 101 % of control

CC(CC(=O)O)C(C)(C#N)C(=O)O (configuration not stated)
inactive: dose: 50.0 mg/kg/injection, schedule: Q01DX005 (ip), vehicle: saline 102 % of control and 110 % of control | dose: 100.0 mg/kg/injection, schedule: Q01DX005 (ip), vehicle: saline 91 % of control and 96 % of control | dose: 200.0 mg/kg/injection, schedule: Q01DX005 (ip), vehicle: saline 96 % of control

CCCCCCOC(=O)c1ccc(Br)cc1
inactive: dose: 50.0 mg/kg/injection, schedule: Q01DX009 (ip), vehicle: Klucel (hydroxypropylcellulose) (HPC) 104 % of control | dose: 100.0 mg/kg/injection, schedule: Q01DX009 (ip), vehicle: Klucel (hydroxypropylcellulose) (HPC) 101 % of control | dose: 200.0 mg/kg/injection, schedule: Q01DX009 (ip), vehicle: Klucel (hydroxypropylcellulose) (HPC) 93 % of control

COC(=O)C1=C/C=C\CN(C(c2ccccc2)c2ccccc2)/C=C\1C(=O)OC
inactive: dose: 50.0 mg/kg/injection, schedule: Q01DX009 (ip), vehicle: suspension in saline 100 % of control | [18] 100 % of control | dose: 100.0 mg/kg/injection, schedule: Q01DX009 (ip), vehicle: suspension in saline 89 % of control | [19] 100 % of control | dose: 200.0 mg/kg/injection, schedule: Q01DX009 (ip), vehicle: suspension in saline 95 % of control | [20] 97 % of control | dose: 400.0 mg/kg/injection, schedule: Q01DX009 (ip), vehicle: suspension in saline 104 % of control

COc1cc(/C=N/n2cnnc2)cc(OC)c1OC
inactive: [21] 100 % of control | [22] 108 % of control | dose: 400.0 mg/kg/injection, schedule: Q01DX009 (ip), vehicle: saline 100 % of control

CC1C(=O)C(C)C(c2ccccc2)N(C)C1c1ccccc1 (configuration not stated)
inactive: [13] 96 % of control | [9] 101 % of control | [14] 106 % of control | [10] 96 % of control | [17] 98 % of control | [11] 106 % of control

CC(=O)Oc1ccccc1C(=O)OC1CC(C)CCC1C(C)C (configuration not stated)
inactive: [1] 99 % of control | [2] 106 % of control | [5] 88 % of control and 94 % of control | [4] 103 % of control
